Results published in patent publication US9255100B2 (BAYER INTELLECTUAL PROPERTY GMBH, priority 2010, dated 2016).

Biological target: T1, N-terminally GST-tagged human full length recombinant Mps-1 kinase (Homo sapiens, UniProt P33981)
T1 construct: N-terminally GST-tagged human full length recombinant Mps-1 kinase; purchased Invitrogen, Karslruhe, Germany PV4071
T1 sequence (P33981 1-857): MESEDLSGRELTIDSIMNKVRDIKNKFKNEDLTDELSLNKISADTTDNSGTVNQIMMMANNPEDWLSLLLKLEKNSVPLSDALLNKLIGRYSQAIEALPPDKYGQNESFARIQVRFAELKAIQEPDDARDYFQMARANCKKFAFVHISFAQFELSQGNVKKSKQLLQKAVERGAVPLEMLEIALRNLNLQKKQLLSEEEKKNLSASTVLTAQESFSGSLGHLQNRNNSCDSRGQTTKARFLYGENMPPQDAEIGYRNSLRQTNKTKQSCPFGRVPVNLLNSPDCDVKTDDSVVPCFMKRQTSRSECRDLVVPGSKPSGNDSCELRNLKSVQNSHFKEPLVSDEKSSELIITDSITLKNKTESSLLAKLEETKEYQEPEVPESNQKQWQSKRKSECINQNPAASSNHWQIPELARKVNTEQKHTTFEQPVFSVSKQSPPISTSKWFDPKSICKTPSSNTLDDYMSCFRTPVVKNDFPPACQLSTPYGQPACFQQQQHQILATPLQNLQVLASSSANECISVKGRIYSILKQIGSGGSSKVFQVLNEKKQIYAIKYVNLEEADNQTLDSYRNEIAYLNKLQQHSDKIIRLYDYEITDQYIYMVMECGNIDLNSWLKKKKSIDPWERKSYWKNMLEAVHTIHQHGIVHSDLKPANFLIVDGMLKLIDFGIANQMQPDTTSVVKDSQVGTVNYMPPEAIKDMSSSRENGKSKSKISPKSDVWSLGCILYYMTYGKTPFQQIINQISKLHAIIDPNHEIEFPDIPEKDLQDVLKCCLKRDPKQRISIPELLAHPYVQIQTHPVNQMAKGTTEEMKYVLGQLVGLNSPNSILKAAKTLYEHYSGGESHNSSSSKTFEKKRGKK
Test: Mps-1 kinase assay (TR-FRET)
Format: biochemical
Conditions: Mps1 IC50 [nM], 10 μM ATP, 1 μM peptide substrate, 60 min at 22° C.
Procedure, shortened: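 TR-FRET signal between a Europium anti-phospho-Ser/Thr antibody and streptavidin-XLent reported phosphorylation of a biotinylated peptide by GST-tagged full-length Mps-1. Enzyme was near 1 nM final, chosen per lot for linearity.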

First: C=Cc1cccc(Nc2cc(NCC(C)(C)O)c3ncc(-c4ccc(C(=O)NC5CC5)c(C)c4)n3n2)c1 [Example 409, N-cyclopropyl-4-{6-[(3-ethenylphenyl)amino]-8-[(2-hydroxy-2-methylpropyl)amino]imidazo[1,2-b]pyridazin-3-yl}-2-methylbenzamide]
Second: Cc1cc(-c2cnc3c(NCC(C)(C)O)cc(Nc4ccccc4O)nn23)ccc1C(=O)NC1CC1 [Example 431, N-cyclopropyl-4-{8-[(2-hydroxy-2-methylpropyl)amino]-6-[(2-hydroxyphenyl)amino]imidazo[1,2-b]pyridazin-3-yl}-2-methylbenzamide]
The IC50 of the first is 7-fold higher: 0.7 nM for the first, 0.1 nM for the second.

Going from `Cc1cc(-c2cnc3c(NCC(C)(C)O)cc(Oc4ccc(F)nc4)nn23)ccc1C(=O)NC1CC1` [Example 410, N-cyclopropyl-4-{6-[(6-fluoropyridin-3-yl)oxy]-8-[(2-hydroxy-2-methylpropyl)amino]imidazo[1,2-b]pyridazin-3-yl}-2-methylbenzamide] to `Cc1cc(-c2cnc3c(NCC(C)(C)O)cc(Oc4ccn[nH]4)nn23)ccc1C(=O)NC1CC1` [Example 414, N-cyclopropyl-4-{8-[(2-hydroxy-2-methylpropyl)amino]-6-(1H-pyrazol-5-yloxy)imidazo[1,2-b]pyridazin-3-yl}-2-methylbenzamide], the IC50 rises from 0.5 nM to 6.7 nM (13-fold).

First: Cc1cc(-c2cnc3c(NCC(C)(C)O)cc(Oc4cncc(C(N)=O)c4)nn23)ccc1C(=O)NC1CC1 [Example 411, 5-({3-[4-(cyclopropylcarbamoyl)-3-methylphenyl]-8-[(2-hydroxy-2-methylpropyl)amino]imidazo[1,2-b]pyridazin-6-yl}oxy)nicotinamide]
Second: Cc1cc(Oc2cc(NCC(C)(C)O)c3ncc(-c4ccc(C(=O)NC5CC5)c(C)c4)n3n2)n[nH]1 [Example 415, N-cyclopropyl-4-{8-[(2-hydroxy-2-methylpropyl)amino]-6-[(5-methyl-1H-pyrazol-3-yl)oxy]imidazo[1,2-b]pyridazin-3-yl}-2-methylbenzamide]
The IC50 of the first is 1.7-fold lower: 4.8 nM for the first, 8.2 nM for the second.

Compared with `Cc1cc(-c2cnc3c(NCC(C)(C)O)cc(Sc4cnccn4)nn23)ccc1C(=O)NC1CC1` [Example 412, N-cyclopropyl-4-{8-[(2-hydroxy-2-methylpropyl)amino]-6-(pyrazin-2-ylsulfanyl)imidazo[1,2-b]pyridazin-3-yl}-2-methylbenzamide], `Cc1cc(-c2cnc3c(NCCC(F)(F)F)cc(Sc4cnccn4)nn23)ccc1C(=O)NC1CC1` [Example 420, N-cyclopropyl-2-methyl-4-{6-(pyrazin-2-ylsulfanyl)-8-[(3,3,3-trifluoropropyl)amino]imidazo[1,2-b]pyridazin-3-yl}benzamide] is 6.9-fold lower in IC50: 19.2 nM for the first, 2.8 nM for the second.

First: Cc1cc(-c2cnc3c(NCC(C)(C)O)cc(Sc4nncn4C)nn23)ccc1C(=O)NC1CC1 [Example 413, N-cyclopropyl-4-{8-[(2-hydroxy-2-methylpropyl)amino]-6-[(4-methyl-4H-1,2,4-triazol-3-yl)sulfanyl]imidazo[1,2-b]pyridazin-3-yl}-2-methylbenzamide]
Second: Cc1cc(-c2cnc3c(NCCC(F)(F)F)cc(Sc4nncn4C)nn23)ccc1C(=O)NC1CC1 [Example 419, N-cyclopropyl-2-methyl-4-{6-[(4-methyl-4H-1,2,4-triazol-3-yl)sulfanyl]-8-[(3,3,3-trifluoropropyl)amino]imidazo[1,2-b]pyridazin-3-yl}benzamide]
The IC50 of the first is 13-fold higher: 45.7 nM for the first, 3.5 nM for the second.

Compared with `Cc1cc(-c2cnc3c(NCCC(F)(F)F)cc(Sc4ccc(F)cc4N)nn23)ccc1C(=O)NC1CC1` [Example 417, 4-{6-[(2-amino-4-fluorophenyl)sulfanyl]-8-[(3,3,3-trifluoropropyl)amino]imidazo[1,2-b]pyridazin-3-yl}-N-cyclopropyl-2-methylbenzamide], `Cc1cc(Nc2cc(NCCC(F)(F)F)c3ncc(-c4ccc(C(=O)NC5CC5)c(C)c4)n3n2)ccc1F` [Example 428, N-cyclopropyl-4-{6-[(4-fluoro-3-methylphenyl)amino]-8-[(3,3,3-trifluoropropyl)amino]imidazo[1,2-b]pyridazin-3-yl}-2-methylbenzamide] is 2-fold higher in IC50: 0.2 nM for the first, 0.4 nM for the second.

Going from `COc1c(Oc2cc(NCCC(F)(F)F)c3ncc(-c4ccc(C(=O)NC5CC5)c(C)c4)n3n2)cccc1C(C)C` [Example 418, N-cyclopropyl-4-{6-[2-methoxy-3-(propan-2-yl)phenoxy]-8-[(3,3,3-trifluoropropyl)amino]imidazo[1,2-b]pyridazin-3-yl}-2-methylbenzamide] to `COc1cccc(Nc2cc(NCCC(F)(F)F)c3ncc(-c4ccc(C(=O)NC5CC5)c(C)c4)n3n2)c1C` [Example 426, N-cyclopropyl-4-{6-[(3-methoxy-2-methylphenyl)amino]-8-[(3,3,3-trifluoropropyl)amino]imidazo[1,2-b]pyridazin-3-yl}-2-methylbenzamide], the IC50 falls from 1.2 nM to 0.2 nM (6-fold).

Going from `COc1cc(Nc2cc(NCCC(F)(F)F)c3ncc(-c4ccc(C(=O)NC5CC5)c(C)c4)n3n2)ccc1F` [Example 422, N-cyclopropyl-4-{6-[(4-fluoro-3-methoxyphenyl)amino]-8-[(3,3,3-trifluoropropyl)amino]imidazo[1,2-b]pyridazin-3-yl}-2-methylbenzamide] to `COc1ccc(Nc2cc(NCCC(F)(F)F)c3ncc(-c4ccc(C(=O)NC5CC5)c(C)c4)n3n2)cc1F` [Example 424, N-cyclopropyl-4-{6-[(3-fluoro-4-methoxyphenyl)amino]-8-[(3,3,3-trifluoropropyl)amino]imidazo[1,2-b]pyridazin-3-yl}-2-methylbenzamide], the IC50 falls from 0.4 nM to 0.2 nM (2-fold).

First: Cc1cccc(Nc2cc(NCCC(F)(F)F)c3ncc(-c4ccc(C(=O)NC5CC5)c(C)c4)n3n2)c1 [Example 423, N-cyclopropyl-2-methyl-4-{6-[(3-methylphenyl)amino]-8-[(3,3,3-trifluoropropyl)amino]imidazo[1,2-b]pyridazin-3-yl}benzamide]
Second: COc1ccc(Nc2cc(NCCC(F)(F)F)c3ncc(-c4ccc(C(=O)NC5CC5)c(C)c4)n3n2)cc1 [Example 425, N-cyclopropyl-4-{6-[(4-methoxyphenyl)amino]-8-[(3,3,3-trifluoropropyl)amino]imidazo[1,2-b]pyridazin-3-yl}-2-methylbenzamide]
The IC50 of the first is 3-fold higher: 0.3 nM for the first, 0.1 nM for the second.

Compared with `Cc1cc(-c2cnc3c(NCCC(F)(F)F)cc(Nc4ccc(CCO)cc4)nn23)ccc1C(=O)NC1CC1` [Example 427, N-cyclopropyl-4-(6-{[4-(2-hydroxyethyl)phenyl]amino}-8-[(3,3,3-trifluoropropyl)amino]imidazo[1,2-b]pyridazin-3-yl)-2-methylbenzamide], `COc1ccc(Nc2cc(NCCC(F)(F)F)c3ncc(-c4ccc(C(=O)NC5CC5)c(C)c4)n3n2)cn1` [Example 429, N-cyclopropyl-4-{6-[(6-methoxypyridin-3-yl)amino]-8-[(3,3,3-trifluoropropyl)amino]imidazo[1,2-b]pyridazin-3-yl}-2-methylbenzamide] is 2-fold lower in IC50: 0.2 nM for the first, 0.1 nM for the second.

Work on `COc1ccc(C)c(Nc2cc(NCCC(F)(F)F)c3ncc(-c4ccc(C(=O)NC5CC5)c(C)c4)n3n2)c1` [Example 430, N-cyclopropyl-4-{6-[(5-methoxy-2-methylphenyl)amino]-8-[(3,3,3-trifluoropropyl)amino]imidazo[1,2-b]pyridazin-3-yl}-2-methylbenzamide] yielded an IC50 of 0.3 nM.
